Measured values: US20110218143A1, “COMPOSITIONS AND METHODS FOR TISSUE REPAIR” (UNIVERSITY OF FLORIDA RESEARCH FOUNDATION, priority 2007, published 2011)
Where “and” joins values, the source holds several entries; their conditions need not be identical. Equal entries are not always repeated. Entries after “also recorded” stand apart in the source; their conditions may differ.

Key:
[1] = system: stem cell populations in bone marrow (cd34+, cd45+, Sca-1+ cells); test: FACS of cells expressing stem cell markers CD34, CD45, Sca-1 in bone marrow samples; assay type: in vivo, C57BL6/J mice
Procedure: Mice received either a placebo (PBS) or oridonin (3.0 mg/kg) by intraperitoneal injection.

[2] = system: mice with STZ induced diabetes; test: Blood glucose in streptozotocin (STZ) induced diabetes model; assay type: in vivo, C57BL6/J mice; settings: STZ 50 mg/kg i.p.; celastrol 2.5 mg/kg by injection from day -2, three times per week; monitored 30 days
Procedure: The administration of streptozotocin to induce pancreatic cell death is a well-known model of diabetes, see for example, Like and Rossini, “Streptozotocin-induced pancreatic insulitis: new model of diabetes mellitus.” Science. Jul. 30, 1976; 193(4251):415-7. Fasting C57BL6/J mice received 50 mg/kg streptozotocin (STZ) by intraperitoneal injection at day 0. Two days prior to (−2 day) and concurrently with STZ injection half of the mice also received celastrol by injection (2.5 mg/kg). Celastrol injections continued three times per week throughout the experiment. Blood glucose levels were monitored for 30 days after treatment (FIG. 9). […] In mice, normoglycemia is typically less than 200 mg/dL blood glucose.

[3] = system: mice with STZ induced diabetes; test: Glucose challenge test in STZ mice; assay type: in vivo, C57BL6/J mice; settings: 1 g glucose/kg, monitored up to 5 hours, placebo mice at or above 400 mg/dl between 0.5 and 2 hours
Procedure: STZ was administered to C57BL6/J mice as described above to induce diabetes. Groups of C57BL6/J mice that received either STZ and placebo or STZ and celastrol were then subjected to a glucose challenge test to assay glucose metabolism. STZ mice received 1 g glucose/kg. Blood glucose levels were monitored for up to 5 hours following administration of glucose. […] Blood glucose levels never reached these levels in STZ mice treated with celastrol. In fact, mice treated with celastrol were better able to metabolize glucose than STZ mice that received placebo (FIG. 10).

[4] = system: mice with ALF induced by TAA; test: Survival in TAA induced acute liver failure; assay type: in vivo, C57BL6/J mice; settings: TAA 1000 mg/kg and celastrol 3 mg/kg i.p.; examined 3 days or longer; TAA alone 100% mortality
Procedure: Thiomacetamide (TAA) was administered to C57BL6/J mice to induce liver damage. Groups of at least 6 C57BL6/J mice received either TAA (1000 mg/kg) and a placebo, TAA (1000 mg/kg) and celastrol (3 mg/kg), or placebo only by intraperitoneal injection. Mice were examined for 3 days or longer to determine survival (FIG. 12).

[5] = system: mice with DOX induced heart disease; test: Survival in doxorubicin (DOX) induced heart disease; assay type: in vivo, C57BL6/J mice; settings: DOX 20 mg/kg and celastrol 3 mg/kg; after 2 weeks; DOX with placebo 80% mortality
Procedure: The administration of doxorubicin (DOX; adriamycin) to induce cardiac damage is a well-known model of heart disease see for example, Rosenhoff et al., “Adriamycin-induced cardiac damage in the mouse: a small-animal model of cardiotoxicity.” J Natl Cancer Inst. July 1975; 55(1):191-4; and van der Vijgh et al., “Morphometric study of myocardial changes during doxorubicin-induced cardiomyopathy in mice.” Eur J Cancer Clin Oncol. October 1988; 24(10):1603-8. Doxorubicin was administered to C57BL6/J mice to induce heart damage. Groups of 13-14 C57BL6/J mice received either DOX (20 mg/kg) and a placebo, or DOX (20 mg/kg) and celastrol (3 mg/kg). Mice were examined after 2 weeks to determine survival (FIG. 13).

NOD-scid mice = test: Adaptive transfer of splenocytes into NOD-scid mice; assay type: in vivo; settings: splenocytes from celastrol treated NOD mice, 5.3×10^6 cells per mouse via tail vein; at 68 day
From the text: NOD mice were sacrificed and splenocytes collected from celastrol-treated healthy mice and mice that became diabetic recently were adaptively transferred at 5.3×10^6 cells per mouse into NOD-scid mice (mice free from immune system) via tail vein injection. Blood glucose levels of the mice were monitored starting from 4 weeks after the adaptive transfer was made. All mice (n=4) that received splenocytes from diabetic mice became diabetic between 31-38 days (FIG. 17, Kaplan-Meier graph). In contrast, mice (12/12) that received splenocytes from celastrol treated mice were free of diabetes (hyperglycemic condition) at 68 day (FIG. 17).

[6] = system: irradiated wild type mice, C57BL/6; test: Transfer of blood cells of treated GFP mice into irradiated wild type mice; assay type: in vivo, C57BL/6 mice
Procedure: As reported herein, celastrol activated and mobilized stem cells into peripheral blood. These observations were extended using GFP mice to analyse stem cell mobilization. Mice expressing GFP in their bone marrow were treated with celastrol and placebo. Blood samples were collected on the third day and red blood cells were lysed. White blood cells containing mobilized stem cells, if any, were injected at 0.5×10^6 cells per mouse through retro-orbital sinus into wild type mice, C57BL/6 that were irradiated to destroy the hematopoietic systems. Cells obtained from placebo-treated GFP mice were injected into a group of wild type mice which served as control. Blood samples from wild type mice that received stem cells from celastrol-treated GFP mice were analyzed after 3, 4 and 5 months of transfer.

[7] = system: irradiated wild type mice, C57BL/6; test: Secondary adaptive transfer of bone marrow cells into irradiated wild type mice; assay type: in vivo, C57BL/6 mice; settings: bone marrow cells from celastrol treated primary adaptive transfer group, 1.5×10^6 cells per mouse; at 7 weeks; control group died within 10 days
From the text: Wild type mice that survived the primary transfer were used for secondary transfer. Bone marrow cells obtained from these mice were collected and transferred into irradiated wild type mice, C57BL/6 at 1.5×10^6 cells per mouse.

[8] = celastrol 2.5 mg/kg i.p., 24 hours post treatment

For CC1=C(O)C(=O)C=C2C1=CC=C1[C@@]2(C)CC[C@@]2(C)[C@@H]3C[C@](C)(C(=O)O)CC[C@]3(C)CC[C@]12C [celastrol], which “cd34+ cells, percent of the population of bone marrow cells” value [1, 8] is on record?
The value was 0.2%.

What about the “fold increase of percentage of cd34+ cells in bone marrow over control” value [1, 8] of the same molecule?
The value was about 4 fold.

What about the “fold increase of percentage of cd45+ cells in bone marrow vs untreated control” value [1, 8] of the same molecule?
Its value is “about 2 fold”.

What about the “fold increase of percentage of cd34+ cells in bone marrow over control” value ([1]; celastrol 2.5 mg/kg i.p., 48 hours) of the same molecule?
The value was about 2 fold.

What about the “increase in CD45 population in bone marrow” value ([1]; celastrol 2.5 mg/kg i.p., 48 hours post treatment, undetectable in placebo mice) of the same molecule?
Its value is “still detectable”.

And the “fold increase in the proportion of Sca-1+ stem cells in bone marrow vs untreated mice” value ([1]; celastrol 2.5 mg/kg i.p., by 48 hours)?
The value was about 3 fold.

What about the “fold increase in the proportion of Sca-1+ stem cells in bone marrow vs untreated mice” value ([1]; celastrol 2.5 mg/kg i.p., time not printed (before 48 hours)) of the same molecule?
The value was “approximately 4 fold”.

And the “increase in cd34+, cd45+ and sca-1+ cells compared with GM-CSF” value ([1]; doses not given)?
Its value is “exceeded that observed using GM-CSF”.

What about the “blood glucose levels in STZ mice relative to STZ mice injected with saline placebo” value [2] of the same molecule?
Its value is “substantially lower; also recorded: normoglycemia”.

And the “blood glucose levels after glucose challenge” value [3]?
The value was under 400 mg/dL.

What about the survival [4] of the same molecule?
The survival was 71.4%.

And the survival [5]?
The survival was 40%.

What about the “recipient mice free of diabetes (hyperglycemic condition)” value (NOD-scid mice) of the same molecule?
Its value is 12/12.

What about the “recipient mice surviving for at least 5 months” value ([6]; irradiated mice given 0.5×10^6 white blood cells from celastrol treated GFP mice, n=4, placebo-cell recipients died between 12 and 16 days) of the same molecule?
Its value is 50%.

What about the “survival time of the other two recipient mice” value ([6]; irradiated mice given cells from celastrol treated GFP mice) of the same molecule?
Its value is 17 days and 25 days.

What about the “mice still surviving secondary transfer” value [7] of the same molecule?
Its value is 85.7%.
